From patent US11254640B2, “N-substituted indoles and other heterocycles for treating brain disorders” (The Regents of the University of California, priority 2019, dated 2022)
“Also recorded” adds a separate entry of the source. Where a name gives a salt, the structure may show the parent alone. Read-outs that look alike come from different tables or passages of the source.

Columns and labels:
cortical neurons = experiment: Dendritogenesis assay, Sholl analysis; format: cell-based, rat; settings: for Emax at 10 µM: Rattus norvegicus, Cortical neurone, Nmax with vehicle (DMSO) = 0% and ketamine = 100%, read-out: % efficacy in sholls; for dendritic arbor complexity / neuronal growth (Nmax of Sholl plots): cortical neurons; for Emax at 10 µM / dendritic arbor complexity / neuronal growth (Nmax of Sholl plots): 10 μM
Source text: Dendritogenesis Assays. Phenotypic screening has historically proven more successful than target-based approaches for identifying drugs with novel mechanisms of action. Having established a simple and robust method for accessing isoDMT analogs, tested next was their ability to increase dendritic arbor complexity in cultures of cortical neurons using a phenotypic assay. Following treatment, neurons were fixed and visualized using an antibody against MAP2—a cytoskeletal protein localized to the somatodendritic compartment of neurons. Sholl analysis was then performed, and the maximum number of crossings (Nmax) was used as a quantitative metric of dendritic arbor complexity. For statistical comparisons between specific compounds, the raw Nmax values were compared. Percent efficacies were determined by setting the Nmax values for the vehicle (DMSO) and positive (ketamine) controls equal to 0% and 100%, respectively.
Animals. For the dendritogenesis experiments, timed pregnant Sprague Dawley rats were obtained from Charles River Laboratories (Wilmington, Mass.). For the head-twitch response assay, male and female C57BL/6J mice were obtained from Jackson Laboratory (Sacramento, Calif.). Mice were housed in a temperature and humidity-controlled room maintained on a 12-h light/dark cycle in groups of 4-5 (same sex). Animals weighed between 17 and 30 g at the time of the experiments. All experimental procedures involving rodents were approved by the UC Davis Institutional Animal Care and Use Committee (IACUC) and adhered to principles described in the National Institutes of Health Guide for the Care and Use of Laboratory Animals. The University of California, Davis and the University of California, San Francisco are accredited by the Association for Assessment and Accreditation of Laboratory Animal Care International (AAALAC).
Dendritogenesis—Sholl Analysis. Dendritogenesis experiments were performed following a previously published method with slight modifications. Neurons were plated in 96-well format (200 μL of media per well) at a density of approximately 15,000 cells/well in Neurobasal (Life Technologies) containing 1% penicillin-streptomycin, 10% heat-inactivated fetal bovine serum, and 0.5 mM glutamine. After 24 h, the medium was replaced with Neurobasal containing 1× B27 supplement (Life Technologies), 1% penicillin-streptomycin, 0.5 mM glutamine, and 12.5 μM glutamate. After 3 days in vitro (DIV3), the cells were treated with compounds. All compounds tested in the dendritogenesis assays were treated at 10 μM unless noted otherwise. Stock solutions of the compounds in DMSO were first diluted 100-fold in Neurobasal before an additional 10-fold dilution into each well (total dilution=1:1000; 0.1% DMSO concentration). Treatments were randomized. After 1 h, the media was removed and replaced with new Neurobasal media containing 1× B27 supplement, 1% penicillin-streptomycin, 0.5 mM glutamine, and 12.5 μM glutamate. The cells were allowed to grow for an additional 71 h. At that time, neurons were fixed by removing 80% of the media and replacing it with a volume of 4% aqueous paraformaldehyde (Alfa Aesar) equal to 50% of the working volume of the well. Then, the cells were incubated at room temperature for 20 min before the fixative was aspirated and each well washed twice with DPBS. Cells were permeabilized using 0.2% Triton X-100 (ThermoFisher) in DPBS for 20 minutes at room temperature without shaking. Plates were blocked with antibody diluting buffer (ADB) containing 2% bovine serum albumin (BSA) in DPBS for 1 h at room temperature. Then, plates were incubated overnight at 4° C. with gentle shaking in ADB containing a chicken anti-MAP2 antibody (1:10,000; EnCor, CPCA-MAP2). The next day, plates were washed three times with DPBS and once with 2% ADB in DPBS. […]

5HT2A sensor [1] = experiment: 5HT2A sensor assay, agonist mode (sLight1.3s HEK293T stable line); format: cell-based; settings: percent relative to 5-HT at 100 uM; for 5HT2A Agonist mean @ 100 nM (%): 100 nM compound; for 5HT2A Agonist mean @ 10 μM (%): 10 μM compound; for 5HT2A Agonist mean @ 100 μM (%): 100 μM compound
How it was run: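 Agonist mode in HEK293T cells stably expressing the sLight1.3 5HT2A sensor, washed into HBSS; compounds at final 100 μM, 10 μM and 100 nM (0.1% DMSO), triplicate wells. Membrane fluorescence (ex 460, em 512-542 nm) imaged before and after addition; dFF=(Fsat−Fapo)/Fapo, expressed as percent activation (DMSO=0, 5HT=100).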

5HT2A sensor [2] = experiment: 5HT2A sensor assay, antagonist mode (sLight1.3s HEK293T stable line); format: cell-based; settings: relative to 5-HT at 100 nM; for 5HT2A Antagonist mean @ 100 nM (%): 100 nM compound; for 5HT2A Antagonist mean @ 10 μM (%): 10 μM compound; for 5HT2A Antagonist mean @ 100 μM (%): 100 μM compound
How it was run: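 Inactivation score is computed from membrane dFF as (dFF(compound+5HT)−dFF(5HT))/dFF(5HT), with HBSS-only fluorescence as Fapo. Final concentrations: 5-HT 100 nM added first, then compound at 100 nM, 10 μM or 100 μM in 0.1% DMSO. Triplicates; FITC imaging, 5 fields per well.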

5HT2A = target: T1, 5HT2A (Homo sapiens, UniProt P28223); experiment: Calcium flux assay (Calcium secondary messenger pathway); format: cell-based; settings: agonist mode
T1 construct: expressed in transfected cells
T1 sequence (P28223 whole entry): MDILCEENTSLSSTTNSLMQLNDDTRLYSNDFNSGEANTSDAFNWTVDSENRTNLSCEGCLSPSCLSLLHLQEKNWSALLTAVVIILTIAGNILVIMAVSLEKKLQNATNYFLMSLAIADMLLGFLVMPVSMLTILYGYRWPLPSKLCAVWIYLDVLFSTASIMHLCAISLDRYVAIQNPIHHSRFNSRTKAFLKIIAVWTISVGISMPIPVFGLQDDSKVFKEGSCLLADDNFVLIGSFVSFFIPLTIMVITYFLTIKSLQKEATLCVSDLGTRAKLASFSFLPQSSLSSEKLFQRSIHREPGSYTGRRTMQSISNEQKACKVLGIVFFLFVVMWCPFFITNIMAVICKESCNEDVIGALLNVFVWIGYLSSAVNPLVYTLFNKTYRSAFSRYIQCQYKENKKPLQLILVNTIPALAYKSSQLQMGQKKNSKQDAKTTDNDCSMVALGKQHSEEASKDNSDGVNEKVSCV
How it was run: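 Gq-coupled calcium mobilization in cells stably expressing 5HT2A, loaded 30–60 min at 37 °C with calcium-sensitive dye in HBSS/20 mM Hepes with 2.5 mM probenecid. Compound added 5 s into a 2-min FLIPR Tetra fluorescence read at room temperature; % activity relative to vehicle and maximal control-ligand RFU.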

rat cortical neurons = experiment: Neurite outgrowth assay; format: cell-based; settings: Cortical neurone, 1 hour treatment at DIV 4, analysed DIV 7, fold vs DMSO control
How it was run: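 Embryonic day 18 rat cortical neurons, 20,000 cells/well in Neurobasal/B27, were exposed at DIV 4 to 10 μM compound for 1 hour, then washed out. At DIV 7, β-III-tubulin immunostaining and automated imaging gave neurite length, branch points, root and extremity counts, reported as fold-change versus DMSO; triplicates.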

[3] = read-out: Neurite Average Length @ 10 μM
[4] = read-out: Neurite Branch Points: @ 10 μM

Row | SMILES | melting point | 5HT2A Agonist mean @ 100 nM (%) (5HT2A sensor [1]) | 5HT2A Agonist mean @ 10 μM (%) (5HT2A sensor [1]) | 5HT2A Agonist mean @ 100 μM (%) (5HT2A sensor [1]) | 5HT2A Antagonist mean @ 100 nM (%) (5HT2A sensor [2]) | 5HT2A Antagonist mean @ 10 μM (%) (5HT2A sensor [2]) | 5HT2A Antagonist mean @ 100 μM (%) (5HT2A sensor [2]) | EC50 (5HT2A) | fold induction at 10 µM (rat cortical neurons; [3]) | fold induction at 10 µM (rat cortical neurons; [4]) | other results
1 | CN(C)CCn1ccc2ccccc21.O=C(O)/C=C/C(=O)O [Example 2, 2-(1H-indol-1-yl)-N,N-dimethylethan-1-amine] | 147 to 149 °C | – | – | – | – | – | – | – | – | – | Emax at 10 µM (cortical neurons): 87%; psychoplastogenic efficacy and potency, concentration-response (Nmax) (cortical neurons; concentrations ranging from 10 μM to 10 pM (FIG. 6)): comparable maximum efficacies and had similar potencies as isosteric DMTs (1 and 28); dendritic arbor complexity / neuronal growth (Nmax of Sholl plots) (cortical neurons): increase dendritic arbor complexity to a comparable extent as DMT (1); also recorded: increased dendritic arbor complexity to a comparable extent as 1
2 | CN(C)CCn1ccc2c(F)cccc21 (as salt: fumarate) [Example 12, 2-(4-fluoro-1H-indol-1-yl)-N,N-dimethylethan-1-amine] | 145 to 149 °C | – | – | – | – | – | – | – | – | – | –
3 | CN(C)CCn1ccc2cc(F)c(F)cc21 (as salt: fumarate) [Example 17, 2-(5,6-difluoro-1H-indol-1-yl)-N,N-dimethylethan-1-amine] | 162 to 165 °C | – | – | – | – | – | – | – | – | – | –
4 | CN(C)CCn1ccc2cccc(F)c21 (as salt: fumarate) [Example 15, 2-(7-fluoro-1H-indol-1-yl)-N,N-dimethylethan-1-amine] | 168 to 170 °C | – | – | – | – | – | – | – | – | – | –
5 | CN(C)CCn1ccc2c(F)cc(F)cc21 (as salt: fumarate) [Example 18, 2-(4,6-difluoro-1H-indol-1-yl)-N,N-dimethylethan-1-amine] | 141 to 145 °C | – | – | – | – | – | – | – | – | – | –
6 | CN(C)CCCn1ccc2ccccc21.O=C(O)/C=C/C(=O)O [Example 26, 3-(1H-indol-1-yl)-N,N-dimethylpropan-1-amine] | 129 to 131 °C | – | – | – | – | – | – | – | – | – | Emax at 10 µM (cortical neurons): 70%; dendritic arbor complexity / neuronal growth (Nmax of Sholl plots) (cortical neurons): only a slight decrease in the Nmax value
7 | CN(C)CCc1cn(C)c2ccccc12 (as salt: fumarate) [Example 27, N,N-dimethyl-2-(1-methyl-1H-indol-3-yl)ethan-1-amine] | 167 to 170 °C | – | – | – | – | – | – | – | – | – | –
8 | CN(C)CCn1cccc1 (as salt: fumarate) [Example 23, N,N-dimethyl-2-(1H-pyrrol-1-yl)ethan-1-amine] | 174 to 180 °C | – | – | – | – | – | – | – | – | – | –
9 | CN(C)CCn1ccc2c(OCc3ccccc3)cccc21 (as salt: fumarate) [Example 8, 2-(4-(benzyloxy)-1H-indol-1-yl)-N,N-dimethylethan-1-amine] | 145 to 150 °C | – | – | – | – | – | – | – | – | – | –
10 | C[C@H](Cn1ccc2c(F)c(F)ccc21)N(C)C [Example 67, (R)-1-(4,5-difluoro-1H-indol-1-yl)-N,N-dimethylpropan-2-amine] | – | B (does not activate 5HT2A sensor assay in agonist mode) | B (does not activate 5HT2A sensor assay in agonist mode) | B (does not activate 5HT2A sensor assay in agonist mode) | A (inhibits 5HT response by >100%) | A (inhibits 5HT response by >100%) | A (inhibits 5HT response by >100%) | > 10 µM | 1.5 to 3 | > 3 | –
11 | CN(C)CCn1ccc2cc(OCc3ccccc3)ccc21 (as salt: fumarate) [Example 9, 2-(5-(benzyloxy)-1H-indol-1-yl)-N,N-dimethylethan-1-amine] | 133 to 135 °C | – | – | – | – | – | – | – | – | – | –
12 | CN(C)CCn1ccc2cc(F)ccc21 (as salt: fumarate) [Example 13, 2-(5-fluoro-1H-indol-1-yl)-N,N-dimethylethan-1-amine] | 145 to 148 °C | – | – | – | – | – | – | – | – | – | –
13 | COc1ccc2c(ccn2CCN2CCCC2)c1 [Example 44, 5-methoxy-1-(2-(pyrrolidin-1-yl)ethyl)-1H-indole] | – | B (does not activate 5HT2A sensor assay in agonist mode) | B (does not activate 5HT2A sensor assay in agonist mode) | B (does not activate 5HT2A sensor assay in agonist mode) | C (inhibits 5HT response by <75%) | A (inhibits 5HT response by >100%) | A (inhibits 5HT response by >100%) | > 10 µM | 1.5 to 3 | > 3 | –
14 | COc1cc2ccn(C[C@@H](C)N(C)C)c2cc1F [Example 61, (R)-1-(6-fluoro-5-methoxy-1H-indol-1-yl)-N,N-dimethylpropan-2-amine] | – | B (does not activate 5HT2A sensor assay in agonist mode) | B (does not activate 5HT2A sensor assay in agonist mode) | B (does not activate 5HT2A sensor assay in agonist mode) | A (inhibits 5HT response by >100%) | A (inhibits 5HT response by >100%) | A (inhibits 5HT response by >100%) | > 10 µM | 1.5 to 3 | 1.5 to 3 | –
15 | C[C@H](Cn1ccc2cc(F)c(F)cc21)N(C)C [Example 68, (R)-1-(5,6-difluoro-1H-indol-1-yl)-N,N-dimethylpropan-2-amine] | – | B (does not activate 5HT2A sensor assay in agonist mode) | B (does not activate 5HT2A sensor assay in agonist mode) | A (activates 5HT2A sensor assay in agonist mode) | B (inhibits 5HT response by 75% to 100%) | A (inhibits 5HT response by >100%) | A (inhibits 5HT response by >100%) | > 10 µM | 1.5 to 3 | > 3 | –
16 | FC(F)(F)Oc1ccc2c(ccn2CCN2CCOCC2)c1 [Example 52, 4-(2-(5-(trifluoromethoxy)-1H-indol-1-yl)ethyl)morpholine] | – | B (does not activate 5HT2A sensor assay in agonist mode) | B (does not activate 5HT2A sensor assay in agonist mode) | A (activates 5HT2A sensor assay in agonist mode) | A (inhibits 5HT response by >100%) | B (inhibits 5HT response by 75% to 100%) | B (inhibits 5HT response by 75% to 100%) | > 10 µM | 1.5 to 3 | 1.5 to 3 | –
